Measurements as given in patent US20220119761A1, “ASPERGILLUS NIGER F22 STRAIN HAVING NEMATICIDAL ACTIVITY AGAINST PLANT-PARASITIC NEMATODES, AND USE THEREOF” (INDUSTRY FOUNDATION OF CHONNAM NATIONAL UNIVERSITY, priority 2015, published 2022).

Tested on: Meloidogyne incognita
Test: 96-well microplate bioassay of nematicidal activity of culture filtrates on Meloidogyne spp. larva suspension
Conditions: 1 μg/mL, control drug, after 3 days
Description: To select filamentous fungi having an excellent nematicidal activity, the present inventors have received 61 culture filtrates of filamentous fungi to screen their nematicidal activities. Specifically, roots of a tomato plant infected with Meloidogyne spp. were washed with running water to remove foreign substances. Thereafter, the well-washed roots were cut into pieces at intervals of 1 cm or less, and put into a blender. Then, a 0.5% sodium hypochlorite solution was added at such an amount that the roots were immersed, and the roots were ground for one minute. Subsequently, the ground roots were filtered through a 65 μm sieve to remove root debris, and the eggs passed through the sieve were collected through a 25 μm sieve, and then washed with sterilized water several times. A concentration of the collected Meloidogyne spp. eggs was measured using a stereoscopic microscope.
The nematicidal activities of the culture filtrates of the 61 fungi were screened using a 96-well microplate bioassay. 45 μL of a Meloidogyne spp. larva suspension, which includes approximately 50 larvae, was added to each of holes, and then treated with a 10% culture filtrate. After 3 days of the sample treatment, the nematicidal activity was determined using the following equation. […]

## abamectin
  nematicidal activity: 95%
